Assays:
in vitro [1] = type: in vitro ADME; conditions: human, s9, pH 7.4
Experimental: Example D: GI S9 Stability […] The S9 metabolic reactions were initiated by the addition of the substrates to the S9 reaction mixture to a final concentration of 2 μM. […] Aliquots ([…]) of the diluted supernatant were analyzed on a Thermo Q-Exactive mass spectrometer as described below. Example F: Liquid Chromatography/Mass Spectroscopy Methods for S9 and Plasma Stability Quantification of test compounds, Reference Compound A (S9 stability assay nucleoside metabolite), and controls was performed by analyte/internal standard peak area ratio (PAR) values measured on a Thermo Q-Exactive mass spectrometer coupled to a Dionex UltiMate 3000 HPLC with a Leap Technologies HTC PAL autosampler. […] Mobile phase A consisted of 0.1% (v/v) formic acid in water. Mobile phase B consisted of 0.1% (v/v) formic acid in acetonitrile. Elution of analytes was achieved by a series of linear gradients of acetonitrile in water containing 0.10% (v/v) formic acid. The mass spectrometer was calibrated on a weekly basis and mass tolerance of 5 ppm was used.

SARS-CoV2-NLuc = test: microbe, parasite or virus in culture; type: cell-based, SARS Coronavirus 2; conditions: Severe acute respiratory syndrome coronavirus 2, 48 h, read-out: SARS-CoV2 EC50 (nM)
in vitro [2] = type: cell-based; conditions: human
Experimental: Example C: CC50 MT4 Cytotoxicity of the compounds was determined in uninfected cells using the cell viability reagent in a similar fashion as described before for other cell types ([…] et al., Antimicrob Agents Chemother. 2008,52(2):655-65). […] Cells were cultured for 4-5 days at 37° C. Following the incubation, the cells were allowed to equilibrate to 25° C., and cell viability was determined by adding Cell-Titer Glo viability reagent. The mixture was incubated for 10 min, and the luminescence signal was quantified using an Envision plate reader. Untreated cell and cells treated at 2 μM puromycin (Sigma, St. Louis, MO) serve as 100% and 0% cell viability control, respectively. The percent of cell viability was calculated for each tested compound concentration relative to the 0% and 100% controls and the CC50 value was determined by non-linear regression as a compound concentration reducing the cell viability by 50%.

in vitro [3] = conditions: human, plasma
RSV-Luc5 = test: microbe, parasite or virus in culture; type: cell-based; conditions: human respiratory syncytial virus, NHBE, 72 h, read-out: RSV NHBE EC50 (nM)
[4] = test system: Caco-2 cells (clone C2BBe1); conditions: human, Caco-2

| SMILES | half-life at 2 μM (in vitro [1]) [min] | EC50 (SARS-CoV2-NLuc) [nM] | CC50 (in vitro [2]) [µM] | half-life at 2 μM (in vitro [3]) [min] | EC50 (RSV-Luc5) [nM] | Caco2 A to B [4] | Caco2 B to A [4] |
| --- | --- | --- | --- | --- | --- | --- | --- |
| CC1(C)CC(=O)O[C@H]2[C@@H](OC(=O)C1)[C@](C#N)(c1ccc3c(N)ncnn13)O[C@@H]2CO [Compound C11, (7aR,8R,10R,10aR)-8-(4-aminopyrrolo[2,1-f][1,2,4]triazin-7-yl)-10-(hydroxymethyl)-4,4-dimethyl-2,6-dioxooctahydro-2H-furo[3,4-b][1,4]dioxonine-8-carbonitrile] | 24.3 | > 50000 | > 50 | 414 | > 50000 |  |  |
| COC(=O)OC[C@H]1O[C@@](C#N)(c2ccc3c(N)ncnn23)[C@@H]2OC(=O)CC(C)(C)CC(=O)O[C@@H]21 [Compound C15, ((7aR,8R,10R,10aR)-10-(4-aminopyrrolo[2,1-f][1,2,4]triazin-7-yl)-10-cyano-4,4-dimethyl-2,6-dioxooctahydro-2H-furo[3,4-b][1,4]dioxonin-8-yl)methyl methyl carbonate] | 6.22 | > 50000 | > 50 | 16.1 | > 50000 |  |  |
| CC(C)COC(=O)OC[C@H]1O[C@@](C#N)(c2ccc3c(N)ncnn23)[C@@H]2OC(=O)CCCC(=O)O[C@@H]21 [Compound C18, ((7aR,8R,10R,10aR)-10-(4-aminopyrrolo[2,1-f][1,2,4]triazin-7-yl)-10-cyano-2,6-dioxooctahydro-2H-furo[3,4-b][1,4]dioxonin-8-yl)methyl isobutyl carbonate] | 0.724 | 1780 | > 50 | 7.57 | 8490 |  |  |
| N#C[C@@]1(c2ccc3c(N)ncnn23)O[C@H](COC(=O)OCCN2CCOCC2)[C@H]2OC(=O)CCCC(=O)O[C@H]21 [Compound C19, ((7aR,8R,10R,10aR)-10-(4-aminopyrrolo[2,1-f][1,2,4]triazin-7-yl)-10-cyano-2,6-dioxooctahydro-2H-furo[3,4-b][1,4]dioxonin-8-yl)methyl (2-morpholinoethyl) carbonate] | 0.552 | 4310 | > 50 | 90.3 | 8620 |  |  |
| CC(C)(OC(=O)OC[C@H]1O[C@@](C#N)(c2ccc3c(N)ncnn23)[C@@H]2OC(=O)CCCC(=O)O[C@@H]21)C(F)F [Compound C25, ((7aR,8R,10R,10aR)-10-(4-aminopyrrolo[2,1-f][1,2,4]triazin-7-yl)-10-cyano-2,6-dioxooctahydro-2H-furo[3,4-b][1,4]dioxonin-8-yl)methyl (1,1-difluoro-2-methylpropan-2-yl) carbonate] | 0.559 | 34300 | > 50 | 11.9 | 6460 |  |  |
| CCOC(=O)C(C)(C)OC(=O)OC[C@H]1O[C@@](C#N)(c2ccc3c(N)ncnn23)[C@@H]2OC(=O)CCCC(=O)O[C@@H]21 [Compound C26, ethyl 2-(((((7aR,8R,10R,10aR)-10-(4-aminopyrrolo[2,1-f][1,2,4]triazin-7-yl)-10-cyano-2,6-dioxooctahydro-2H-furo[3,4-b][1,4]dioxonin-8-yl)methoxy)carbonyl)oxy)-2-methylpropanoate] | 0.618 | 39900 | > 50 | 18.3 | > 50000 |  |  |
| CC(C)(C)COC(=O)OC[C@H]1O[C@@](C#N)(c2ccc3c(N)ncnn23)[C@@H]2OC(=O)CCCC(=O)O[C@@H]21 [Compound C29, ((7aR,8R,10R,10aR)-10-(4-aminopyrrolo[2,1-f][1,2,4]triazin-7-yl)-10-cyano-2,6-dioxooctahydro-2H-furo[3,4-b][1,4]dioxonin-8-yl)methyl neopentyl carbonate] | 0.587 | 2220 | > 50 | 12.1 | 4660 |  |  |
| CCOC(=O)[C@@H]1[C@H](OC(=O)OC[C@H]2O[C@@](C#N)(c3ccc4c(N)ncnn34)[C@@H]3OC(=O)CCCC(=O)O[C@@H]32)CCN1C [Compound C32, ethyl (2S,3R)-3-(((((7aR,8R,10R,10aR)-10-(4-aminopyrrolo[2,1-f][1,2,4]triazin-7-yl)-10-cyano-2,6-dioxooctahydro-2H-furo[3,4-b][1,4]dioxonin-8-yl)methoxy)carbonyl)oxy)-1-methylpyrrolidine-2-carboxylate] | 0.566 | 4970 | > 50 | 30.9 | 7650 |  |  |
| CC(C)COC(=O)OC[C@H]1O[C@@](C#N)(c2ccc3c(N)ncnn23)[C@@H]2OC(=O)CC(C)(C)CC(=O)O[C@@H]21 [Compound C35, ((7aR,8R,10R,10aR)-10-(4-aminopyrrolo[2,1-f][1,2,4]triazin-7-yl)-10-cyano-4,4-dimethyl-2,6-dioxooctahydro-2H-furo[3,4-b][1,4]dioxonin-8-yl)methyl isobutyl carbonate] | 0.609 | > 50000 | > 50 | 73.6 | > 50000 |  |  |
| CC1(C)CC(=O)O[C@H]2[C@@H](OC(=O)C1)[C@](C#N)(c1ccc3c(N)ncnn13)O[C@@H]2COC(=O)OC1CCCC1 [Compound C37, ((7aR,8R,10R,10aR)-10-(4-aminopyrrolo[2,1-f][1,2,4]triazin-7-yl)-10-cyano-4,4-dimethyl-2,6-dioxooctahydro-2H-furo[3,4-b][1,4]dioxonin-8-yl)methyl cyclopentyl carbonate] | 5.15 | > 50000 | > 50 | 300 | > 50000 |  |  |
| CCOC(=O)C(C)(C)OC(=O)OC[C@H]1O[C@@](C#N)(c2ccc3c(N)ncnn23)[C@@H]2OC(=O)CC(C)(C)CC(=O)O[C@@H]21 [Compound C43, ethyl 2-(((((7aR,8R,10R,10aR)-10-(4-aminopyrrolo[2,1-f][1,2,4]triazin-7-yl)-10-cyano-4,4-dimethyl-2,6-dioxooctahydro-2H-furo[3,4-b][1,4]dioxonin-8-yl)methoxy)carbonyl)oxy)-2-methylpropanoate] | 19.7 | > 50000 | > 50 |  | > 50000 | 2.93 | 11.62 |
| CC1(C)CC(=O)O[C@H]2[C@@H](OC(=O)C1)[C@](C#N)(c1ccc3c(N)ncnn13)O[C@@H]2COC(=O)OC(CF)CF [Compound C44, ((7aR,8R,10R,10aR)-10-(4-aminopyrrolo[2,1-f][1,2,4]triazin-7-yl)-10-cyano-4,4-dimethyl-2,6-dioxooctahydro-2H-furo[3,4-b][1,4]dioxonin-8-yl)methyl (1,3-difluoropropan-2-yl) carbonate] | 1.22 | > 50000 | > 50 | 133 | > 50000 |  |  |
| N#C[C@@]1(c2ccc3c(N)ncnn23)O[C@H](COC(=O)C2CCC2)[C@H]2OC(=O)CCCC(=O)O[C@H]21 [Compound C57, ((7aR,8R,10R,10aR)-10-(4-aminopyrrolo[2,1-f][1,2,4]triazin-7-yl)-10-cyano-2,6-dioxooctahydro-2H-furo[3,4-b][1,4]dioxonin-8-yl)methyl cyclobutanecarboxylate] |  | 3000 | > 50 | 7.33 | 3780 |  |  |
